Reference: patent US20130217721A1, “COMPOSITIONS AND METHODS FOR DETECTION AND TREATMENT OF B-RAF INHIBITOR-RESISTANT MELANOMAS” (The Regents of the University of California, priority 2010, published 2013)

B1: FLAG-tagged p61 BRAF(V600E/R509H) (enzyme, human, UniProt P15056 1-766, looked up)
chain: MAALSGGGGGGAEPGQALFNGDMEPEAGAGAGAAASSAADPAIPEEVWNIKQMIKLTQEHIEALLDKFGGEHNPPSIYLEAYEEYTSKLDALQQREQQLLESLGNGTDFSVSSSASMDTVTSSSSSSLSVLPSSLSVFQNPTDVARSNPKSPQKPIVRVFLPNKQRTVDLIRDQGFRGDGGSTTGLSATPPASLPGSLTNVKALQKSPGPQRERKSSSSSEDRNRMKTLGRRDSSDDWEIPDGQITVGQRIGSGSFGTVYKGKWHGDVAVKMLNVTAPTPQQLQAFKNEVGVLRKTHHVNILLFMGYSTKPQLAIVTQWCEGSSLYHHLHIIETKFEMIKLIDIARQTAQGMDYLHAKSIIHRDLKSNNIFLHEDLTVKIGDFGLATEKSRWSGSHQFEQLSGSILWMAPEVIRMQDKNPYSFQSDVYAFGIVLYELMTGQLPYSNINNRDQIIFMVGRGYLSPDLSKVRSNCPKAMKRLMAECLKKKRDERPLFPQILASIELLARSLPKIHRSASEPSLNRAGFQTEDFSLYACASPKTPIQAGGYGAFPVH
notes: domain: splice variant lacking exons 4-8 (554 amino acids); Expressed in 293H cells; immunoprecipitated with FLAG antibody; also called dimerization-deficient mutant; not shown: FLAG tag

Assays:
[1] = system: M249 R sub-line (M249 R4); test: Cell survival / proliferation assay (72 h); assay type: cell-based, human; details: for growth sensitivity to MEK inhibition: M249 R4, 72 h, in the presence or absence of PLX4032
Experimental: (§1) Cells were maintained in Dulbecco's modified Eagle medium (DMEM) with 10 or 20% fetal bovine serum and glutamine. shRNAs were sub-cloned into the lentiviral vector pLL3.7 and infections carried out with protamine sulphate. Stocks of PLX4032 (Plexxikon) and AZD6244 (commercially available) were made in DMSO. Cells were quantified using CellTiter-GLO Luminescence (Promega).
(§2) Cell proliferation experiments were performed in a 96-well format (five replicates), and baseline quantification performed at 24 h after cell seeding along with initiation of drug treatments (72 h). Stocks and dilutions of PLX4032 (Plexxikon), AZD6244 (Selleck Chemicals) and U0126 (Promega) were made in DMSO. siRNA pool (Dharmacon) transfections were carried out in 384-well format. TransIT transfection reagent (Mirus) was added to each well and incubated at 37° C. for 20 min. Subsequently, cells were reverse transfected, and the mixture was incubated for 51-61 h at 37° C. Cells were quantified using CellTiter 96 Aqueous One Solution (Promega) or CellTiter-GLO Luminescence (Promega) following the manufacturer's recommendations.
(§3) Cell culture, infections and drug treatments. Cells were maintained in DMEM with 10 or 20% fetal bovine serum and glutamine. shRNAs for B-RAF and C-RAF were sub-cloned into the lentiviral vector pLL3.7; pBabe B-RAF (V600E) was purchase (plasmid 17544, Addgene); viral supernatants generated by co-transfection with three packaging plasm ids into HEK293T cells; and infections carried out with protamine sulfate. Stocks and dilutions of PLX4032 (Plexxikon, Berkeley, Calif.) and AZD6244 (commercially available) were made in DMSO. Cells were quantified using CellTiter-GLO Luminescence (Promega) or crystal violet staining followed by NIH Image J quantification.

[2] = system: Pt48 R short-term culture; test: Cell survival / proliferation assay (72 h); assay type: cell-based, human; details: for growth sensitivity to inhibitor: 72 h, PLX4032-resistant cells grown with PLX4032
Experimental: as §1, §2

[3] = system: M238 R sub-lines (M238 R1); test: Cell survival / proliferation assay (72 h); assay type: cell-based, human; details: M238 R1, 72 h, PLX4032-resistant cells grown with PLX4032
Experimental: as §1, §2

[4] = system: M229 R sub-lines (M229 R5); test: Cell survival / proliferation assay (72 h); assay type: cell-based, human; details: M229 R5, 72 h, PLX4032-resistant cells grown with PLX4032
Experimental: as §1, §2

[5] = system: Pt55 R short-term culture; test: Cell survival / proliferation assay (72 h); assay type: cell-based, human; details: for growth sensitivity to MEK inhibition: 72 h, in the presence or absence of PLX4032
Experimental: as §1, §2

[6] = system: M395 R; test: Cell survival assay (72 h); assay type: cell-based, human; details: M395 R (V600EB-RAF amplification-driven), 72 h
From the text: as §3

[7] = system: SKMEL-239 PLX4032-resistant clones C1-5; test: Proliferation assay of PLX4032-resistant clones; assay type: cell-based, human; details: all five resistant clones, albeit at slightly higher doses
Experimental: Cell proliferation and cell cycle analysis. All melanoma cell lines were generated by A. Houghton (MSKCC) or obtained from ATCC. 293H cells were obtained from Invitrogen. Cells were maintained in DMEM (293H and MEFs), or RPMI (all other cell lines) supplemented with 2 mM glutamine, antibiotics and 10% fetal bovine serum. We confirmed by DNA fingerprinting^20 that all PLX4032-resistant, SKMEL-239 clones were derived from the same patient, thus excluding the possibility of contamination (Table 6). For proliferation assays, cells were plated in 6 well plates and 24 hours later were treated with varying concentrations of inhibitors as indicated. IC50 values were calculated using Graph Pad Prism v.5. For cell cycle and apoptosis studies, cells were seeded in 6 well dishes the day prior to drug treatment. For analysis, both adherent and floating cells were harvested and stained with ethidium bromide as described previously^21.

[8] = molecular target: T1, V5-tagged p61 BRAF(V600E/R509H) (human, UniProt P15056 1-766); test: co-immunoprecipitation of FLAG- and V5-tagged forms from 293H cells
T1 construct: domain: splice variant lacking exons 4-8 (554 amino acids); Co-expressed with the FLAG-tagged form in 293H cells; also called dimerization mutant p61 BRAF(V600E/R509H); not shown: V5 tag

Molecule	growth sensitivity to MEK inhibition [1]	growth sensitivity to inhibitor [2]	growth sensitivity to inhibitor [3]	growth sensitivity to inhibitor [4]	growth sensitivity to MEK inhibition [5]	also measured
Cn1cnc2c(F)c(Nc3ccc(Br)cc3Cl)c(C(=O)NOCCO)cc21 [AZD6244]	sensitive	highly resistant	highly resistant	highly resistant	sensitive	proliferation under MEKi treatment ([1]; M249 R4 (Q61KN-RAS-driven), 72 h): decreased proliferation; proliferation under MEKi treatment [6]: decreased proliferation
O=C(NOC[C@H](O)CO)c1ccc(F)c(F)c1Nc1ccc(I)cc1F [PD0325901]	–	–	–	–	–	sensitivity to the MEK inhibitor [7]: retained sensitivity
CCCS(=O)(=O)Nc1ccc(F)c(C(=O)c2c[nH]c3ncc(Cl)cc23)c1F [PLX4720]	–	–	–	–	–	growth resistance to B-RAF inhibitor [2]: resistance; growth resistance to B-RAF inhibitor [5]: resistance
N#CC(=C(/N)Sc1ccccc1N)/C(C#N)=C(\N)Sc1ccccc1N [U0126]	sensitive	highly resistant	highly resistant	highly resistant	sensitive	–
B1	–	–	–	–	–	binding result [8]: no binding
